The subject of experiment [1] is C-26.IVX cells derived from the colon adenocarcinoma. Briefly: Suramin blocks C-26 mediated cachexia (Example 1). In kind it is in vivo, mice. The conditions noted are these: 200 mg/kg I.P. d7, 13. On the procedure:
Eleven male mice (CD)2F1 obtained from Charles Rivers Laboratories were weighed and then were inoculated with 0.5×10^6 C-26.IVX cells derived from the colon adenocarcinoma (by the procedure described in Strassmann et al., J. Clin. Invest., 89, pp. 1681-84 (May 1992) which is incorporated herein by reference). The day of inoculation was identified as day 0 (d0). On days 7 and 13, five of these mice each received intraperitoneally 0.5 ml of PBS (phosphate buffered saline) and the other six mice each received intraperitoneally 200 mg/kg body weight of suramin diluted in 0.5 ml PBS. On day 19, all the mice were sacrificed and the final total weight, the host weight, the tumor weight, epididymal fat, and dry weight were measured.

Experiment [2] relates to C-26 cachexia. Briefly: Time course of C-26 mediated weight loss and tumor volume (Example 2). In kind it is in vivo, mice. As to conditions: 100 mg/kg intraperitoneally days 7 and 12. On the procedure: In subsequent experiments, eight mice obtained from the same source as above were injected with 0.5 ml PBS intraperitoneally and eight other mice from the same source as above were injected with 100 mg/kg body weight of suramin intraperitoneally. The injections were given on days 7 and 12. The weight of the two groups was measured several times a week.

In experiment [3] the test system is C-26 cachexia. Briefly: Dose dependence of C-26 cachexia inhibition (Example 3). As to conditions: increasing amounts intraperitoneally; day 17; FIG. 3. It counts as in vivo, mice. Here is the method:
Mice were obtained and injected with C-26 cells as set forth above for Example 1, and then were put into four groups of five mice each. The mice were injected intraperitoneally with increasing amounts of suramin as indicated in FIG. 3 except for the control mice. On day 17, the total weight of each group was compared to a control group of five mice which had been injected with 0.5 ml PBS intraperitoneally.

Experiment [4] deals with turpentine-induced wasting. Briefly: Turpentine-induced wasting (Example 4). It counts as in vivo, mice. As to conditions: 100 mg/kg intraperitoneally day -3, 0.1 ml turpentine i.m. day 0, FIG. 4. On the procedure: (See Gershenwald et al., "Interleukin 1 receptor blockade attenuates the host inflammatory response" Proc. Natl. Acad. Sci., 87 4966-70, (July, 1990) for a description of the turpentine-induced wasting procedure). In this experiment, three days before day 0 (day -3), five male (CD)2F1 mice, obtained from Charles Rivers Laboratories, each received intraperitoneally 0.5 ml of PBS. Five other mice obtained from the same source each received intraperitoneally 100 mg/kg body weight suramin diluted with 0.5 ml of PBS.

Experiment [5] concerns IL-6. Briefly: IL-6 dependent proliferation of B-9 cells (3H-thymidine incorporation). In kind it is cell-based. The conditions noted are these: preincubated with IL-6; 3 days culture; FIG. 5. On the procedure: A standard proliferation assay, Strassmann et al., J. Immunol., 147:1279-1285 (1991), was conducted using 96 well plates The medium used was RPMI with 10% fetal calf serum B-9 cells were added and were cultured for 3 days. The extent of proliferation of B-9 cells was determined by the incorporation of radioactive thymidine as described in Strassmann et al., J. Clin. Invest., 89, pp. 1681-84 (May 1992). […] (See Strassmann et al., J. Clin. Invest., 89, pp. 1681-84 (May 1992), incorporated herein by reference.)
The same procedures set forth in Example 5 was followed except that a different sulfate-containing compound, Pentosan polysulfate, was used.
The same procedure set forth in Example 5 was followed except in this example, Dextran sulfate and Dextran, were used instead of Suramin.
(Uptake of a labelled nucleoside into DNA is a usual measure of proliferation.)

The test system of experiment [6] is IL-6 receptor. Briefly: Radioreceptor assay: binding of 125I-IL-6 to U266 cells. More on the design: species or system human. As to conditions: 90 minutes at 4° C.; increasing amounts of compound. Here is the method:
This experiment analyzed whether suramin inhibits IL-6 bioactivity by interfering with binding to the IL-6 receptor. Into eighteen test tubes was placed U266 indicator cells (obtained from ATCC), a binding buffer, made up of RPMI medium, 0.1 mg BSA and […] Hepes, and 100,000 cpm (0.8 ng) of ^125 I-IL-6. The tubes were divided into six groups of three tubes each and received suramin as follows: group 1 had 300 uM suramin; group 2 had 100 uM suramin; group 3 had 30 uM suramin; group 4 had 10 uM suramin; and group 5 had no suramin, but only medium (control for maximal binding). In addition, group 6 received excess unlabeled IL-6 without suramin for use in determining the background of binding in this assay.
After 90 minutes of incubation at 4° C. and the centrifugation of cells on oil (a standard radioreceptor assay) Strassmann, J. Immunol., 147:1279-1289 (1991), the amount of radioactivity bound to the cells was determined. […] Also, the addition of increasing amounts of suramin prevented the binding of radioactive IL-6 to U266 human myeloma indicator cells in vitro as reflected in the results set forth in FIG. 6.
The same procedure set forth in Example 6 was followed, except that Pentosan polysulfate was used instead of Suramin.

For experiment [7], the system named is 125I-IL-6. Briefly: 125I-IL-6 sequestration in vivo (liver, kidney, spleen radioactivity). As to conditions: for Kidney radioactivity / Liver radioactivity / Spleen radioactivity: 5 mg/mouse, mean ± 0.5 range of 2 mice. More on the design: species or system mice. On the procedure:
The ability to prevent binding of IL-6 in vivo was analyzed as follows. Eight mice received 5.0 mg/mouse of suramin intravenously and eight other mice received 0.2 ml PBS/mouse intravenously 0.5 hour. Thereafter, all sixteen of the mice received an injection of 300,000 cpm (2.4 ng) of ^125 I-IL-6. Four mice from each group were sacrificed 30 minutes after receiving the ^125 I-IL-6 and the remaining four mice from each group were sacrificed 60 minutes after receiving the ^125 I-IL-6. The liver, kidney, and spleen were removed and measured for radioactivity (cpm).

For experiment [8], the system named is cachexia-inducing action of CF. The conditions noted are these: Silva et al., Infection and Immunity 1988; cited from earlier work.
Setting [9] is: 5.0 mg/mouse intravenously 0.5 hour before 125I-IL-6.

Values joined by “and” are separate entries in the source; they are usually repeats but may differ in a detail not shown here. Equal entries are not always repeated. “Also recorded” adds a separate entry of the source. Structures can show the parent of a compound that is named as a salt.

For `Cc1ccc(C(=O)Nc2ccc(S(=O)(=O)O)c3cc(S(=O)(=O)O)cc(S(=O)(=O)O)c23)cc1NC(=O)c1cccc(NC(=O)Nc2cccc(C(=O)Nc3cc(C(=O)Nc4ccc(S(=O)(=O)O)c5cc(S(=O)(=O)O)cc(S(=O)(=O)O)c45)ccc3C)c2)c1` [Suramin, 8-8'-[Carbonylbis[imino-3,1-phenylenecarbonylimino(4-methyl-3,1-phenylene)carbonylimino]]bis-1,3,5-naphthalenetrisulfonic acid hexasodium salt], in experiment [1] (d19, individual mouse), the “% weight loss” value is 5.3% and 17.6% and 10.5% and 15.4% and 18.6% and 5.1%; the Dry wt was 7.8 g and 6.5 g and 6.6 g and 6.4 g; the Final total wt. was 25.9 g and 25.2 g and 26.2 g and 25.5 g and 25.4 g and 27.4 g; the “Host's wt.” value is 25.0 g and 23.3 g and 24.2 g and 23.5 g and 23.1 g and 25.8 g. Also, in experiment [1] (d19, individual mouse), the IL-6 is 292 U/ml and 360 U/ml and 310 U/ml and 535 U/ml and 477 U/ml and 328 U/ml; the “Serum Glucose” value was 128 mg/dL and 114 mg/dL and 100 mg/dL and 110 mg/dL and 109 mg/dL and 116 mg/dL; the Tumor wt was 0.93 g and 1.98 g and 2.08 g and 1.96 g and 2.36 g and 1.64 g. In addition, in experiment [1] (d19, mean ±SD of six mice), the “% weight loss” value is 12.0%, the Dry wt is given as 6.7 ± 0.5 g, the “Host's wt.” value stood at 24.2 g and the IL-6 turned out to be 384 U/ml. In experiment [1] (d19, mean ±SD of six mice), the “Serum Glucose” value came to 113 ± 9 mg/dL and the Tumor wt stood at 1.82 g. For the same molecule, in experiment [1] (d19, mean ±SD of six mice, listed as suramin), the “% weight loss” value amounted to 12.0±6.0%. In experiment [1] (sacrificed d19, mean ±SD of six mice), this molecule returned a Final total wt. of 26.9 ± 0.8 g. The “C-26 mediated weight loss over time” value in experiment [2] (FIG. 1) is listed as “inhibited C-26 mediated weight loss in a significant time dependent manner; also recorded: time dependent inhibition of C-26 cachexia”. The “tumor (C-26) growth in vivo (tumor volume)” value in experiment [2] (FIG. 2) was “no significant effect on the tumor (C-26) growth in-vivo except on day 19; also recorded: lack of effect”. Also, in experiment [3], the “percentage of weight loss (wasting) versus dose” value is on record as “inhibited wasting in a dose dependent manner; also recorded: dose dependent inhibition of C-26 cachexia”. Moreover, the turpentine-induced weight loss result in experiment [4] was “exhibited no such weight loss; also recorded: prevention of turpentine-induced wasting”. Also, the “bioactivity of IL-6 (proliferation of B-9 cells)” value in experiment [5] is on record as “inhibits the bioactivity of IL-6; also recorded: inhibition of bioactivity of IL-6”. Also, in experiment [6], the “binding of radioactive IL-6 to U266 cells” value is “prevents binding of the IL-6 to the U266 cells in a dose dependent manner; also recorded: prevention of the binding of IL-6 to human myeloma cells”. For the same molecule, in experiment [7] (setting [9]), the “less radioactivity measured in the liver versus PBS” value is recorded as “approximately 50%” and the “radioactive IL-6 present in the kidney” value is “increase of radioactive IL-6 present in the kidney”. In experiment [7] (Expt. 1, 30 minutes), the Kidney radioactivity is 70151 ± 125 cpm, the Liver radioactivity is 8385 ± 1525 cpm/gm and the Spleen radioactivity is recorded as 1347 ± 295 cpm. Also, in experiment [7] (Expt. 1, 60 minutes), the Kidney radioactivity is reported as 36595 ± 1760 cpm, the Liver radioactivity was found to be 4275 ± 91 cpm/gm and the Spleen radioactivity is reported as 630 ± 6 cpm. Also, in experiment [7] (Expt. 2, 30 minutes), the Kidney radioactivity was determined as 57287 ± 2849 cpm, the Liver radioactivity is listed as 9277 ± 235 cpm/gm and the Spleen radioactivity is 1306 ± 4 cpm. Further, in experiment [7] (Expt. 2, 60 minutes), the Kidney radioactivity is reported as 38254 ± 466 cpm, the Liver radioactivity was determined as 5512 ± 379 cpm/gm and the Spleen radioactivity worked out at 631 ± 25 cpm.
`C[C@@H]1C[C@H]2[C@@H]3CCC4=CC(=O)C=C[C@]4(C)[C@@]3(F)[C@@H](O)C[C@]2(C)[C@@]1(O)C(=O)CO` [Dexamethasone]: the “cachexia-inducing action of CF” value in experiment [8] was “partially inhibit the cachexia-inducing action of CF”.

The values above are taken from patent US5453444A, “Method to mitigate or eliminate weight loss” (Otsuka Pharmaceutical Co., Ltd., priority 1994, dated 1995).
